Reference: patent US20240182495A1, “ANTIBACTERIAL COMPOUNDS” (JANSSEN SCIENCES IRELAND UNLIMITED COMPANY, priority 2021, published 2024)
In brackets after ≈: the same amount, converted by molar mass. Where two headings read alike, the source gives them in different places.

Assays:
[1] = test system: Mycobacterium tuberculosis strain (EH4.0, GFP-expressing; Test 2: H37Rv); assay: MIC determination against M. tuberculosis, Test 1 (and/or Test 2); format: cell-based; conditions: Mycobacterium tuberculosis, H37RV, 168 h, 7 days incubation, fluorescence
hERG = hERG (Homo sapiens, UniProt Q12809); assay: sync hERG; format: cell-based
in vitro [2] = conditions: mouse, plasma
physchem [3] = format: physicochemical
Description: (§1) The compounds of the invention/examples may have advantages associated with in vitro potency, kill kinetics (i.e. bactericidal effect) in vitro, PK properties, food effect, safety/toxicity (including liver toxicity, coagulation, 5-LO oxygenase), metabolic stability, Ames II negativity, MINT negativity, aqueous based solubility (and ability to formulate) and/or cardiovascular effect e.g. on animals (e.g. anesthetized guinea pig). Data that is generated/calculated may be obtained using standard methods/assays, for instance that are available in the literature or which may be performed by a supplier (e.g. Microsomal Stability Assay—Cyprotex, Mitochondrial toxicity (Glu/Gal) assay—Cyprotex, as well as literature CYP cocktail inhibition assays). GSH can be measured (reactive metabolites, […]) to observe if a dihydrodiol is observed by LCMS (fragmentation ions), which would correspond to a dihydroxylation on the core heterocycle.

physchem [4] = format: physicochemical; conditions: for purity: 0.065 mg/mL in SGF with 20% ACN
[5] = test system: CYPs (all isoforms, or the isoforms not named for that compound); assay: CYP cocktail inhibition, all / other isoforms; format: in vitro ADME; conditions: read-out: CYPS IC50 (all / others)
Description: as §1

[6] = MDCK permeability / efflux; conditions: dog, MDCK
MDCK = MDCK permeability / efflux; conditions: A to B with inhibitor
[7] = LM Clint (microsomal stability), human; format: in vitro ADME
Description: as §1

physchem [8] = assay: physchem
[9] = Mitochondrial toxicity (Glu/Gal) assay; format: cell-based; conditions: for Glu/Gal: Gal: galactose medium; for Glu/Gal: Glu: glucose medium
Description: as §1

[10] = Chemical stability testing in DMSO, ACN/H2O, ACN/0.1N HCl, ACN/0.1N NaOH (% by LCMS); format: physicochemical
Method: Preliminary Protocol • Add 3 μl of a 10 mM DMSO stock solution to 1 ml of the following solvents in a 1.5 ml HPLC vial. • DMSO (reference solution) • H2O/Acetonitril 1/1 (assay solution) • 0.1N HCl/Acetonitril 1/1 (assay solution) • Mix well, […] LCMS • Compare the chromatograms of the two assay solutions with the reference solution and report the additional peaks as degradation peaks

in vitro [11] = conditions: human, plasma
AMES II = conditions: score
Description: as §1

2C9 = 2C9 (Homo sapiens, UniProt P11712); assay: CYP cocktail inhibition, 2C9; format: in vitro ADME; conditions: read-out: CYPS IC50 2C9
Description: as §1

2C19 = 2C19 (Homo sapiens, UniProt P33261); assay: CYP cocktail inhibition, 2C19; format: in vitro ADME; conditions: read-out: CYPS IC50 2C19
Description: as §1

[12] = LM Clint (microsomal stability), mouse; format: in vitro ADME
Description: as §1

in vitro [13] = conditions: mouse, hepatocytes
2C8 = molecular target: T1, 2C8 (Homo sapiens, UniProt P10632); assay: CYP cocktail inhibition, 2C8; format: in vitro ADME; conditions: read-out: CYPS IC50 2C8
T1 sequence (P10632 1-490): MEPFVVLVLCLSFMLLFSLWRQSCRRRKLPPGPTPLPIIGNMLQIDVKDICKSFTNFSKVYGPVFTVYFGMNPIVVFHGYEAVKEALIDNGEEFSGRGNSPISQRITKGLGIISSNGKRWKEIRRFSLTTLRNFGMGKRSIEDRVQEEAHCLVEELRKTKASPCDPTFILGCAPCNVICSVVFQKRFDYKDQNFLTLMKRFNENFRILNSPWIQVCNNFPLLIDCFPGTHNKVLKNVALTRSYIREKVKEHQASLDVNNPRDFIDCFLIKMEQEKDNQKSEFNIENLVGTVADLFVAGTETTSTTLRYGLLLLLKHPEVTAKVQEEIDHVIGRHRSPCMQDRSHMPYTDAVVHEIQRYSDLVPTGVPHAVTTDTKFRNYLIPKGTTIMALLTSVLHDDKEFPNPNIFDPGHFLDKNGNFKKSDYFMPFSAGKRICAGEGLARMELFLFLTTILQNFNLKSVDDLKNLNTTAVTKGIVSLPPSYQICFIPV
Description: as §1

[14] = Hep t1/2 (hepatocyte stability), mouse; conditions: hepatocytes
M. tuberculosis H37Rv = conditions: strain H37Rv, inside macrophages; cited from earlier work
[15] = pH 2, simulated gastric fluid, thermodynamic from solid
[16] = pH 7, aqueous buffer, thermodynamic from solid
[17] = h (human) liver microsomes, read-out: LM Clint

Chain of hERG (Q12809 whole entry): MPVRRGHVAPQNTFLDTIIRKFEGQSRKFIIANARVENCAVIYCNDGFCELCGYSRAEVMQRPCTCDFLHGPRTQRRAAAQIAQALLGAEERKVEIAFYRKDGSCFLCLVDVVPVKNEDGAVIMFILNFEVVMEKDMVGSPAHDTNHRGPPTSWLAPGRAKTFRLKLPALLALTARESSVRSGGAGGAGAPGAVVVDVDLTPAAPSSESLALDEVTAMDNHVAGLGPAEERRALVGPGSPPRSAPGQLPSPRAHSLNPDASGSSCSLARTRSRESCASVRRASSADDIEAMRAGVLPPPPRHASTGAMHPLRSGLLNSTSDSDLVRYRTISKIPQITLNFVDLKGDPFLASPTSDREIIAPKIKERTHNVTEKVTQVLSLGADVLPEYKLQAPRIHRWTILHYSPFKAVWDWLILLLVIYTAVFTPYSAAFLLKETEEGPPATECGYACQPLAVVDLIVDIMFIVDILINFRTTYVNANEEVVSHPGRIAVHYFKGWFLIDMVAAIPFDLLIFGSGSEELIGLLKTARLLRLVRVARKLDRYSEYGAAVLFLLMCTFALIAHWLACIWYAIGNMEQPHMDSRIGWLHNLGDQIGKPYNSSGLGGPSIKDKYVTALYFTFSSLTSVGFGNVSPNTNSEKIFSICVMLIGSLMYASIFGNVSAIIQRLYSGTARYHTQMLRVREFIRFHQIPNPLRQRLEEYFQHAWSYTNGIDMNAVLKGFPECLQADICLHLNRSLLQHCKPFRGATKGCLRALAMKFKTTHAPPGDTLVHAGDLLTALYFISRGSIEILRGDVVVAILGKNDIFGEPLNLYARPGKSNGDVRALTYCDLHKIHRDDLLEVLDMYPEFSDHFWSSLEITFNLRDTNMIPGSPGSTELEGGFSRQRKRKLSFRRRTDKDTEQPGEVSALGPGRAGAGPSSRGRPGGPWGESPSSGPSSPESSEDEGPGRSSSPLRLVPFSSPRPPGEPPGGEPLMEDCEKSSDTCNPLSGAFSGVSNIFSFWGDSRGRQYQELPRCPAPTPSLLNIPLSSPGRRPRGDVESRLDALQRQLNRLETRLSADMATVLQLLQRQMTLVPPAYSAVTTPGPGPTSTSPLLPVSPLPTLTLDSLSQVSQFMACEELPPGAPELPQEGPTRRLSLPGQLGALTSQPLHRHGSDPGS
Chain of 2C9 (P11712 whole entry): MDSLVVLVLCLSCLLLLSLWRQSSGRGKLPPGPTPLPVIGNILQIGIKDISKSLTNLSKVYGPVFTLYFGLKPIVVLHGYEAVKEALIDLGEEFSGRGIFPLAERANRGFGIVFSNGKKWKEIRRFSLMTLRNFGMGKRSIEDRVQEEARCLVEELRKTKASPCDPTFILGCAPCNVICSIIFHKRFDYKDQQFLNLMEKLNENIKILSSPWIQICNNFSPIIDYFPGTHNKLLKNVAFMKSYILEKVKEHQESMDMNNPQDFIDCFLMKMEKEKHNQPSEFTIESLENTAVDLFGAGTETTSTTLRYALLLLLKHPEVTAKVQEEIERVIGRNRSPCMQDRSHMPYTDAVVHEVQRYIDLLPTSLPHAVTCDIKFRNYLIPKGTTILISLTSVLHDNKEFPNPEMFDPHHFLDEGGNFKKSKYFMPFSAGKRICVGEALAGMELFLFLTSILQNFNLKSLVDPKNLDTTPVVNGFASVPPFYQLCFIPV
Chain of 2C19 (P33261 whole entry): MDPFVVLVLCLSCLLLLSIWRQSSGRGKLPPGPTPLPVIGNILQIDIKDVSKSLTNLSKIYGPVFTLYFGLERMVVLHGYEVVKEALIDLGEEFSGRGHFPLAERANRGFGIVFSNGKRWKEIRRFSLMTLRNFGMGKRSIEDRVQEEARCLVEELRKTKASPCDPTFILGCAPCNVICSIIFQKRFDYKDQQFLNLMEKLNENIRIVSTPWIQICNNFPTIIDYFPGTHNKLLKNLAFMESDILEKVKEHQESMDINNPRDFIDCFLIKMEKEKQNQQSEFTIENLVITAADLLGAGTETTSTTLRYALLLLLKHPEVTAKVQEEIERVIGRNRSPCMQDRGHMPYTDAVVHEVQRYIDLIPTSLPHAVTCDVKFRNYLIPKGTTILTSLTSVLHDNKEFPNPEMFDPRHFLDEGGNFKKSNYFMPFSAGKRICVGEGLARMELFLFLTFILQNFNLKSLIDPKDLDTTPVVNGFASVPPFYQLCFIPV

Compound	IC50 [1] [µM]	IC50 (hERG) [µM]	solubility thermodynamic (physchem [3]; [15]) [µM]	solubility thermodynamic (physchem [3]; [16]) [µM]	IC50 [5] [µM]	efflux ratio [6]	MDCK AB+inh (MDCK)	microsomal CLint [7, 17] [µL/min/mg]	solubility (physchem [8]; fassif) [µM]	solubility (physchem [8]; fessif) [µM]	Glu/Gal: Gal [9]	Glu/Gal: Glu [9]	chemical stability (% by LCMS) ([10]; 72 h, 30 µM) [%]	chemical stability (% by LCMS) ([10]; 72 h, 30 µM, pH 1.6) [%]	AMES II (AMES II)	IC50 ([5]; human) [µM]	IC50 (2C9) [µM]	solubility thermodynamic (physchem [3]; pH 4, aqueous buffer) [µM]	chemical stability (% by LCMS) ([10]; 48 h, 30 μM) [%]	chemical stability (% by LCMS) ([10]; 48 h, 30 μM, pH 1.6) [%]	also measured
CCc1nc2ncc(Cl)cn2c1C(=O)NCc1ccc(-c2nc3n(n2)CCN(S(=O)(=O)C(F)(F)F)C3)cc1 [Compound 2]	0.01	> 30	0.99 (≈ 0.563 µg/mL)	< 0.13	> 20	12.6	32.5	9.3	< 5	24.4 (≈ 13.9 µg/mL)	> 100	> 100	100	90.52	1	–	–	–	–	–	fraction unbound (in vitro [2]): 0.0054; purity (physchem [4]; at 0 hr): 99.56%; purity (physchem [4]; at 0.25 hr): 99.38%; purity (physchem [4]; at 0.5 hr): 99.21%; purity (physchem [4]; at 1 hr): 98.89%; purity (physchem [4]; at 2 hr): 98.28%; purity (physchem [4]; at 4 hr): 97.1%; half-life at 0.065 mg/mL (physchem [4]; simulated gi fluid): 113 h; fraction unbound (in vitro [11]): 0.0117
CCc1nc2ncc(C)cn2c1C(=O)NCc1ccc(-c2nc3n(n2)CCN(S(=O)(=O)C(F)(F)F)C3)c(F)c1 [Compound 7]	0.00851	> 30	125 (≈ 70.8 µg/mL)	1.62 (≈ 0.918 µg/mL)	–	61.7	21.4	22.6	–	–	> 200	> 200	100	100	–	> 20	15.5	–	–	–	–
CCc1nc2ccc(C)cn2c1C(=O)NCc1ccc(-c2cn3c(n2)CN(S(=O)(=O)C(F)(F)F)CC3)cc1 [Compound 79]	0.00676	30.2	574 (≈ 314 µg/mL)	–	–	–	42.7	–	5.6 (≈ 3.06 µg/mL)	29.3 (≈ 16 µg/mL)	> 200	> 200	–	–	1	> 20	17.7	0.062 (≈ 0.0339 µg/mL)	100	100	IC50 (2C19): 14.4 µM; microsomal CLint ([12]; mouse, microsomes): 13.2 µL/min/mg; half-life (in vitro [13]): 43.3 min; microsomal CLint ([7]; human, microsomes): 39.8 µL/min/mg; chemical stability (% by LCMS) ([10]; 0 h, 30 μM): 100%
CCc1nc2ncc(C)cn2c1C(=O)NCc1ccc(-c2cc3n(n2)CCN(S(=O)(=O)C(F)(F)F)C3)c(F)c1 [Compound 82]	0.00282	20.4	12.3 (≈ 6.96 µg/mL)	–	> 19.5	–	16.2	231	24.5 (≈ 13.9 µg/mL)	8.8 (≈ 4.98 µg/mL)	> 25	> 25	–	–	1	–	–	< 0.02	100	100	IC50 (2C8): 10.6 µM; microsomal CLint ([12]; m (mouse) liver microsomes, read-out: LM Clint): 28 µL/min/mg; half-life [14]: 16.5 min
CCc1nc2ccc(Cl)cn2c1C(=O)NCc1ccc(N2CCC(c3ccc(OC(F)(F)F)cc3)CC2)cc1 [Compound Q203]	–	–	–	–	–	–	–	–	–	–	–	–	–	–	–	–	–	–	–	–	MIC50 (M. tuberculosis H37Rv): 0.00028 µM (≈ 0.000156 µg/mL)
